In data set [1] the test system is yeast thioredoxin (Trx)/yeast Trx reductase (TR). Put plainly: Peroxidase activity assay (H2O2 reduction, NADPH oxidation). It counts as biochemical. To be noted: 50 μM test compound, 3 μM yeast Trx, 1.5 μM yeast TR, 250 μM NADPH, 1.2 mM H2O2, 30° C.; NADPH oxidized per minute. The essentials:
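Buffer: 50 mM HEPES pH 7.0, 1 mM EDTA, 250 μM NADPH, 3 μM yeast Trx, 1.5 μM yeast TR, 50 μM test compound; reaction started with 1.2 mM H2O2. A340 decrease followed at 30° C for 12 min. Initial rate is NADPH oxidized per minute, taken from the linear slope.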

A short description of data set [2]: Measurement of redox potential (DTT redox buffers, HPLC). The data set is classed as physicochemical. Particulars: DTT(Red)/DTT(Ox) redox buffers, 3 h, 30° C., 50% reduction of test compound.
The test system of data set [3] is human aortic smooth muscle cell (HASMC). Put plainly: PDGF-induced proliferation assay, HASMC (PrxII siRNA). To be noted: for Degree of HASMC proliferation: PDGF-BB 25 ng/mL, percent of untreated control; for IC50: Homo sapiens, HASMC, 50% growth inhibition, PDGF-stimulated. The data set is classed as cell-based.
Data set [4] deals with human pulmonary artery smooth muscle cell (PASMC). Put plainly: PDGF-induced proliferation assay, PASMC (PrxII siRNA). It counts as cell-based. To be noted: for Degree of PASMC proliferation: PDGF-BB 25 ng/mL, percent of untreated control; for IC50: Homo sapiens, PASMC, 50% growth inhibition, PDGF-stimulated.
Data set [5] concerns SuHx rat model of pulmonary arterial hypertension. Put plainly: Sugen/hypoxia (SuHx) rat model of pulmonary arterial hypertension. The data set is classed as in vivo. Particulars: P.O., once daily, 0.1 mg/kg, 5 weeks; for RV hypertrophy (Fulton's index) / Right ventricular systolic pressure (RVSP): compared to vehicle control group, FIG. 7. On the procedure:
The rat study protocol was approved by the Institutional Animal Care and Use Committee of the Ewha Womans University, Republic of Korea, and conforms to the ARRIVE guidelines. Six-week-old rats were acclimatized for one week in the laboratory. Then, Sugen 5416 (Sigma Aldrich) was subcutaneously injected at a dose of 20 mg/kg. The administered subjects were maintained in a normobaric hypoxic (10% O2) chamber (A chamber, Biosphenix) for 3 weeks. Rats were transferred to normoxia and orally administered with either control vehicle or test compounds for additional 5 weeks (P.O., once daily, 0.1 mg per kg weight).
Right ventricular systolic pressure (RVSP) was measured by […] using a curved catheter equipped with PowerLab2/26 device (AD Instruments, UK). Rats were anesthetized with 2% isoflurane inhalation. A catheter was inserted through the right jugular vein, the pressure was measured for 10 seconds with stabilized pattern. After […], rats were perfused with saline, and the heart was carefully removed. The removed heart was dissected into the right ventricle (RV), the rest of the septum (S; septum), and the left ventricle (LV). Each piece of heart was weighed using a microbalance. The RV/(LV+S) value was calculated and represented as a right ventricular hypertrophy index (Fulton's index).
Rats were anesthetized with 2% isoflurane inhalation and subjected to transcardiac perfusion-fixation with heparinized saline solution containing […]. Then, left lung lobes were incised and fixed in 10% NBF for 3 days. The fixed tissues were paraffin-embedded and sectioned using a rotary microtome (Leica HistoCore MULTICUT). Two serial tissue sections (4 μm thick) were placed a slide glass and stained with hematoxylin and eosin (HE). For analysis, ˜100 pulmonary arteries (diameter 20-100 μm) per tissue section were chosen for measurement. The luminal, internal elastic laminal, and external elastic laminal areas were quantified using NIH ImageJ v1.62. The intimal and medial areas were determined by subtraction of the luminal area from the internal elastic area and by subtracting the internal elastic area from the external elastic area. The values were averaged and used for calculating pulmonary arterial vessel thickness.
Paraffin sections were blocked with 5% normal donkey serum (Vector Laboratories) in PBST (PBS solution of 0.3% Triton X-100) for 1 h at room temperature. Thereafter, lung tissue sections were incubated with […] for Alexa Fluor 568-conjugated smooth muscle actin (α-SMA; 1:300 dilution) and Alexa Fluor 488-conjugated von Willebrand Factor (vWF; 1:200 dilution) at 4° C. for 12 h. Subsequently, nuclei were counterstained with DAPI. Fluorescence images were recorded in random regions of at least 10 pulmonary artery vessels (diameter 20-100 um) per tissue section at a screen magnification of 60× using an LSM 880 confocal microscope equipped with argon and helium-neon lasers.
The therapeutic effect of new compounds on pulmonary arterial hypertension was evaluated in a preclinical SuHx rat model. For establishing PAH model, rats were administered with Sugen (VEGFR2 inhibitor) and placed in a normobaric hypoxic condition (10% O2) for 3 weeks. Rats were moved to normoxic condition and orally administered with control vehicle or compound 1 or 8 (P.O., once daily, 0.1 mg/kg) for 5 weeks. Thereafter, right ventricular systolic pressure (RVSP) and right ventricular hypertrophy (Fulton's index) were measured at the end of treatment.

The term IC50 denotes the midpoint of a concentration-inhibition curve. A higher IC50 goes with weaker potency in that assay. As for `CN1C(=O)C2(C)SSCC1C(=O)N2C` (stereo not drawn) [Compound 1, 1,6,8-trimethyl-2,3-dithia-6,8-diazabicyclo[3.2.2]nonane-7,9-dione], the “Peroxidase activity for H2O2 reduction” value in data set [1] was 4.92 nmol/min. Also, in data set [2], the “Midpoint redox potential (E m)” value is listed as −285.25 mV. Further, the “Degree of HASMC proliferation” value in data set [3] (2.5 nM) turned out to be 70.0%; in data set [3] (5 nM), 43.9%; in data set [3] (10 nM), 17.1%; in data set [3] (25 nM), 1.5%. Moreover, the figures for the IC50 in data set [3] and in data set [4] were 4.18 nM and 5.01 nM, respectively. For the same compound, the “Degree of PASMC proliferation” value in data set [4] (2.5 nM) was determined as 70.8%; in data set [4] (5 nM), 49.8%; in data set [4] (10 nM) it was 29.4%; in data set [4] (25 nM), 14.3%; in data set [4] (50 nM), 0.0%; in data set [4] (100 nM), 0.0%. The “Pulmonary arterial vessel occlusion (histology)” value in data set [5] (FIG. 8) is reported as “widens the pulmonary arterial vessels”. Also, in data set [5], the “RV hypertrophy (Fulton's index)” value is listed as “significantly reduces”. Also, in data set [5], the “Right ventricular systolic pressure (RVSP)” value is recorded as “significantly reduces”. Moreover, the “Endothelial layer (vWF-labeled ECs) in pulmonary arterial vessels” value in data set [5] (immunostaining, FIG. 9) is recorded as “induces the recovery of endothelial layer”. The “Medial thickness (SMA-labeled SMCs) in pulmonary arterial vessels” value in data set [5] (immunostaining, FIG. 9) is “reduction of medial thickness”.
On to `CN1C(=O)C2CSSC1(C)C(=O)N2Cc1ccc2ccccc2n1` (stereo not drawn) [Compound 5, 1,8-dimethyl-6-(quinolin-2-ylmethyl)-2,3-dithia-6,8-diazabicyclo[3.2.2]nonane-7,9-dione], for which the “Peroxidase activity for H2O2 reduction” value in data set [1] was determined as 4.80 nmol/min. In addition, the “Midpoint redox potential (E m)” value in data set [2] was −290.3 mV. The “Degree of HASMC proliferation” value in data set [3] (2.5 nM) is 62.3%; in data set [3] (5 nM), 52.4%; in data set [3] (10 nM), 36.9%; in data set [3] (25 nM) it was 9.7%. In addition, the IC50 in data set [3] came to 4.87 nM; in data set [4] it was 5.64 nM. Also, the “Degree of PASMC proliferation” value in data set [4] (2.5 nM) turned out to be 71.3%; in data set [4] (5 nM), 48.3%; in data set [4] (10 nM), 37.5%; in data set [4] (25 nM), 26.8%; in data set [4] (50 nM) it was 1.9%; in data set [4] (100 nM), 2.5%.
On to `O=C1C2CSSC3(COCCN13)C(=O)N2Cc1ccccc1` (stereo not drawn) [Compound 8, 12-benzyltetrahydro-5H,10H-4,10a-(epiminomethano)[1,4]oxazino[3,4-c][1,2,4]dithia zepine-5,11-dione], for which the “Peroxidase activity for H2O2 reduction” value in data set [1] stood at 4.91 nmol/min. The “Midpoint redox potential (E m)” value in data set [2] was −272.6 mV. For the same compound, the “Degree of HASMC proliferation” value in data set [3] (2.5 nM) was determined as 75.1%; in data set [3] (5 nM), 40.1%; in data set [3] (10 nM), 46.9%; in data set [3] (25 nM), 30.2%. For the same compound, the IC50 in data set [3] was 6.46 nM; in data set [4], 3.52 nM. Further, the “Degree of PASMC proliferation” value in data set [4] (2.5 nM) came to 57.7%; in data set [4] (5 nM), 41.7%; in data set [4] (10 nM) it was 24.8%; in data set [4] (25 nM), 5.7%; in data set [4] (50 nM), 0.0%; in data set [4] (100 nM), 0.0%. Further, the “RV hypertrophy (Fulton's index)” value in data set [5] was “significantly reduces”. Further, the “Right ventricular systolic pressure (RVSP)” value in data set [5] is given as “significantly reduces”.
For `CCN1C(=O)C2(C)SSCC1C(=O)N2CC` (stereo not drawn) [Compound 20, 6,8-diethyl-1-methyl-2,3-dithia-6,8-diazabicyclo[3.2.2]nonane-7,9-dione], in data set [1], the “Peroxidase activity for H2O2 reduction” value was 4.78 nmol/min. Besides, in data set [2], the “Midpoint redox potential (E m)” value is given as −296.79 mV. Moreover, the “Degree of HASMC proliferation” value in data set [3] (2.5 nM) came out at 85.8%; in data set [3] (5 nM), 58.7%; in data set [3] (10 nM) it was 34.9%; in data set [3] (25 nM), 12.3%. Further, the IC50 in data set [3] is 6.69 nM; in data set [4] it was 6.17 nM. Besides, the “Degree of PASMC proliferation” value in data set [4] (2.5 nM) was 82.2%; in data set [4] (5 nM) it was 51.5%; in data set [4] (10 nM) it was 31.6%; in data set [4] (25 nM) it was 21.1%; in data set [4] (50 nM) it was 7.3%; in data set [4] (100 nM), 5.2%.

These data come from patent US20260008784A1 (VASTHERA CO., LTD., priority 2022, published 2026).
